Target: TRPV4 (Homo sapiens, UniProt Q9HBA0)
Experiment: fura […] Ca2+ imaging dose response in human primary monocyte-derived macrophages (endogenous TRPV4); response reduced by TRPV4 siRNA knockdown; EC50 […] (GM-CSF) and […] (M-CSF)
Format: cell-based

Chain of TRPV4 (Q9HBA0 whole entry): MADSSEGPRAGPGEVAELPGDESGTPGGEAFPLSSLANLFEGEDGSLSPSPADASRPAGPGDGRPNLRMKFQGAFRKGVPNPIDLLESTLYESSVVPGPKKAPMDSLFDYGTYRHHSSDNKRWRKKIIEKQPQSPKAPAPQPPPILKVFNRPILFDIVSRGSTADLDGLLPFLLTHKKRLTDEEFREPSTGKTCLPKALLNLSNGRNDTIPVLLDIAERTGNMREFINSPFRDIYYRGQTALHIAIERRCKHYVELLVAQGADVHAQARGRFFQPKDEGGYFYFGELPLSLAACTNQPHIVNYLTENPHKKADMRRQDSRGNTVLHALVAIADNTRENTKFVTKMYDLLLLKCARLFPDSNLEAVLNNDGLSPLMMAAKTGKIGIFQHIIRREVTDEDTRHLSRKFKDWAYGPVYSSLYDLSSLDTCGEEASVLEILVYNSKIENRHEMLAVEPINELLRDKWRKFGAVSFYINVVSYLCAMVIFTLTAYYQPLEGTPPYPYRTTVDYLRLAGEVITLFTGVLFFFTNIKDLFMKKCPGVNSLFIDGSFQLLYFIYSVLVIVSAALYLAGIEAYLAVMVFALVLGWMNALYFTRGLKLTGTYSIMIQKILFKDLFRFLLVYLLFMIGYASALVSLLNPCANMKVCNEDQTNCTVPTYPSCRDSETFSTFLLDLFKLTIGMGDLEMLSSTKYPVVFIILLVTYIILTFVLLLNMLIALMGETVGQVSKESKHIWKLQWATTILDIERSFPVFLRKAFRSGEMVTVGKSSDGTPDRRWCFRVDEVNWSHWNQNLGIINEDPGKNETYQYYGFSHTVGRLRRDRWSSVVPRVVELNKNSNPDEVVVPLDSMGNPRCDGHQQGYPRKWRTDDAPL

## CC(C)C[C@H](NC(=O)c1cc2ccccc2s1)C(=O)N1CCN(C(=O)[C@H](CO)NS(=O)(=O)c2ccc(Cl)cc2Cl)CC1 [GSK1016790A]
  EC50: 580 nM

— PMC10563396, “Anti-Inflammatory Role of TRPV4 in Human Macrophages” (ImmunoHorizons, 2023)
